The record followed here is ChEMBL document CHEMBL1132671, “The synthesis of a new class of oxytocin antagonists” (Bioorg Med Chem Lett, 1999).

One may read the Ki as a dissociation constant, usually derived from enzyme kinetics or from competition with a known ligand.

The species named for assay [1] is Rattus norvegicus. Put plainly: Dose inhibiting the response of a dose of oxytocin to half of the response in rat. In kind it is functional. The settings on record: for ED50: Rattus norvegicus, read-out: ID50 (the source's name).
The next assay concerns the target T1, Oxytocin receptor (Homo sapiens, UniProt P30559).
T1 sequence (P30559 whole entry): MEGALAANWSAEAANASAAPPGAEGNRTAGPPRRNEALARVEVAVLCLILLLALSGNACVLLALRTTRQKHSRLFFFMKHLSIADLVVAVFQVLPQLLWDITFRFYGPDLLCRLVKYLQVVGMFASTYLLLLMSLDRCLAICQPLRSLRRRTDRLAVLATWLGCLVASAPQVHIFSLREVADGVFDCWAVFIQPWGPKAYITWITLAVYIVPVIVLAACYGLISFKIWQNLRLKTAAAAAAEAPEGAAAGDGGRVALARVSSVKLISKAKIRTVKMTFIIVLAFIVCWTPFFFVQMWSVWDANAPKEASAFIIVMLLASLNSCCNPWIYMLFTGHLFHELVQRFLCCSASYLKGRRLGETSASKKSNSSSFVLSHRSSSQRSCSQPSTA
Put plainly: […] antagonistic activity against cloned human oxytocin receptor over-expressed in a stable HEK293 cell line. In kind it is functional.

For assay [2], the species on record is Rattus norvegicus. Put plainly: Dose inhibiting the response of a dose of oxytocin to half of the response in rat;NA means no activity. It is filed as functional, organism-based.

SMILES strings stand for the structures. Calls of active or inactive are those of the source. The rule behind the calls is not given here.

As for `CC[C@@H](C)[C@@H]1NC(=O)[C@H]([C@@H](C)CC)NC(=O)[C@@H](Cc2c[nH]c3ccccc23)NC(=O)CCSCC[C@@H](C(=O)N(C)[C@@H](CCCN)C(N)=O)NC(=O)[C@H](CC(N)=O)NC1=O`, the ED50 in the assay listed under Rattus norvegicus [1] turned out to be 0.0029 µmol/kg.
On to `CC[C@@H](C)[C@@H]1NC(=O)[C@H]([C@@H](C)CC)NC(=O)[C@@H](Cc2c[nH]c3ccccc23)NC(=O)CCCSC[C@H](CCCN)NC(=O)[C@H](CC(N)=O)NC1=O`, for which the ID50 in the assay listed under Rattus norvegicus [1] came out at 5.4 nmol/kg. Besides, at Oxytocin receptor, affinity was put at a Ki of 4 nM.
Regarding `CC[C@@H](C)[C@@H]1NC(=O)[C@H]([C@@H](C)CC)NC(=O)[C@@H](Cc2c[nH]c3ccccc23)NC(=O)CCCSCC2CCCN2C(=O)[C@H](CC(N)=O)NC1=O` (single isomer, unassigned), at Oxytocin receptor, the affinity, expressed as Ki, was 1000 nM. In the assay listed under Rattus norvegicus [2], the ID50 entry is “inactive”.
Regarding `CC[C@@H](C)[C@@H]1NC(=O)[C@H]([C@@H](C)CC)NC(=O)[C@@H](Cc2c[nH]c3ccccc23)NC(=O)CCSCC[C@@H](C(N)=O)NC(=O)[C@H](CC(N)=O)NC1=O`, the ED50 in the assay listed under Rattus norvegicus [1] was 0.048 µmol/kg.
For `CC[C@@H](C)[C@@H]1NC(=O)[C@H]([C@@H](C)CC)NC(=O)[C@@H](Cc2c[nH]c3ccccc23)NC(=O)CCCSCC(CCCCN)NC(=O)[C@H](CC(N)=O)NC1=O` (single isomer, unassigned), the ED50 in the assay listed under Rattus norvegicus [1] came to 0.017 µmol/kg. This molecule returned an inhibitory constant (Ki) at Oxytocin receptor of 2.8 nM.
Take `CC[C@@H](C)[C@@H]1NC(=O)[C@H]([C@@H](C)CC)NC(=O)[C@@H](Cc2c[nH]c3ccccc23)NC(=O)CCCSCC(CCCN)NC(=O)[C@H](CC(N)=O)NC1=O` (single isomer, unassigned): in the assay listed under Rattus norvegicus [1], the ID50 worked out at 32 nmol/kg. Besides, the affinity on Oxytocin receptor, expressed as Ki, was 26 nM.
